Test results reported in patent publication US11339130B1 (Blade Therapeutics, Inc., priority 2016, dated 2022).
pIC50: −log10 of the molar value. Like-named read-outs stand apart in the source and are kept apart here.

Assays:
Type in all cases: biochemical
[1] = biological target: T1, Human Calpain 9/NS1 (Homo sapiens, UniProt O14815); assay: Calpain inhibition continuous fluorescence (FRET) assay, Human Calpain 9/NS1; settings: read-out: Human Calpain 9/NS1 IC50
T1 sequence (O14815 1-690): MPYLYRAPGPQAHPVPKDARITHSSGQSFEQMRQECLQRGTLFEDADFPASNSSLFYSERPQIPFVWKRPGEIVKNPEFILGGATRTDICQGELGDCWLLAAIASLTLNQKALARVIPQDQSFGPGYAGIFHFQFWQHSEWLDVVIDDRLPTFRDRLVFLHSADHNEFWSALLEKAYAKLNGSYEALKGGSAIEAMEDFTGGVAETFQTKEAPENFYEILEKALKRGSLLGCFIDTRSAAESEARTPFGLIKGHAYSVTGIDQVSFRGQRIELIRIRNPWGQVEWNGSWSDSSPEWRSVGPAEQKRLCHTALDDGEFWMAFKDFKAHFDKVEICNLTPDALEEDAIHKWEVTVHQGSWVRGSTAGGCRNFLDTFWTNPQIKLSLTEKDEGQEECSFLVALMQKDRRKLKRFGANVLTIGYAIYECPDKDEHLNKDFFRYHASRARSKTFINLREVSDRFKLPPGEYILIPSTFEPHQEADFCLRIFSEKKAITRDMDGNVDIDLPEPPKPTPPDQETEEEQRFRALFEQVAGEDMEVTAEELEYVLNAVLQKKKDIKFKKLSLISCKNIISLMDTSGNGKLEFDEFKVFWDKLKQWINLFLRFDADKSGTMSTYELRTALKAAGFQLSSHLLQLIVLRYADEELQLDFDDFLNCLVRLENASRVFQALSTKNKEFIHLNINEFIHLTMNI
T1 sequence (P04632 1-268 partner): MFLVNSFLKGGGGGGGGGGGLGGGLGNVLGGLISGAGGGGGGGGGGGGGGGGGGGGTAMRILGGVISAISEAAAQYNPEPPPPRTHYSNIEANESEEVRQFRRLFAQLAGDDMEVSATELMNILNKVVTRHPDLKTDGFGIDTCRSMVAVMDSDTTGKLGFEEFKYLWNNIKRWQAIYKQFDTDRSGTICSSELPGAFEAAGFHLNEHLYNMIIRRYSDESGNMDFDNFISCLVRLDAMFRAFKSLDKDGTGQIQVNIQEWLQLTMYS
Outline: (§1)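 Calpain activity is measured kinetically with a quenched FRET peptide in 50 mM Tris pH 7.5, 100 mM NaCl, 1 mM DTT, with CaCl2 triggering activation. Rates over 1-5 min are plotted against log inhibitor to obtain IC50 by 4-parameter logistic fitting.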

[2] = biological target: T2, Human Calpain 1/NS1 (Homo sapiens, UniProt P07384); assay: Calpain inhibition continuous fluorescence (FRET) assay, Human Calpain 1/NS1; settings: read-out: Human Calpain 1/NS1 IC50
T2 sequence (P07384 1-714): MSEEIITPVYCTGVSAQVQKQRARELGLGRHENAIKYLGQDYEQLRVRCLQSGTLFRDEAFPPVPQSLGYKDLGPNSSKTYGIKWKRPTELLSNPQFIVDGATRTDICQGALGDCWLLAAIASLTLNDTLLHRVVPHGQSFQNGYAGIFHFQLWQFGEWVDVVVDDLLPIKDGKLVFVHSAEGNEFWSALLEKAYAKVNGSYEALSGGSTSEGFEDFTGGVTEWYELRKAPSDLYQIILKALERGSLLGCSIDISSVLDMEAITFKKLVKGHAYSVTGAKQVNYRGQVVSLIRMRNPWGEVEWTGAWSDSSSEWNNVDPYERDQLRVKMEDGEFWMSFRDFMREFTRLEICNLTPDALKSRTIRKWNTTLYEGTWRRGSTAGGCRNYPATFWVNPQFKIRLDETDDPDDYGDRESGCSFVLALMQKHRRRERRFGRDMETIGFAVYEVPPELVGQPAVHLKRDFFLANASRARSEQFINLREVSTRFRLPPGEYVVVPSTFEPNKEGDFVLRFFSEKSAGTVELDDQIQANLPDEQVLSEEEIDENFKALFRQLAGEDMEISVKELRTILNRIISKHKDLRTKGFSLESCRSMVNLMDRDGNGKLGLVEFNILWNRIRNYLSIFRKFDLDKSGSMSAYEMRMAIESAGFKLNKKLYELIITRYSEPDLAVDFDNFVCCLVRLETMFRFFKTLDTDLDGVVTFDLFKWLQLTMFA
T2 sequence (P04632 1-268 partner): T1 sequence (P04632 1-268 partner)
Outline: as §1

[3] = biological target: T3, Human Calpain 2/NS1 (Homo sapiens, UniProt P17655); assay: Calpain inhibition continuous fluorescence (FRET) assay, Human Calpain 2/NS1; settings: read-out: Human Calpain 2/NS1 IC50
T3 sequence (P17655 1-700): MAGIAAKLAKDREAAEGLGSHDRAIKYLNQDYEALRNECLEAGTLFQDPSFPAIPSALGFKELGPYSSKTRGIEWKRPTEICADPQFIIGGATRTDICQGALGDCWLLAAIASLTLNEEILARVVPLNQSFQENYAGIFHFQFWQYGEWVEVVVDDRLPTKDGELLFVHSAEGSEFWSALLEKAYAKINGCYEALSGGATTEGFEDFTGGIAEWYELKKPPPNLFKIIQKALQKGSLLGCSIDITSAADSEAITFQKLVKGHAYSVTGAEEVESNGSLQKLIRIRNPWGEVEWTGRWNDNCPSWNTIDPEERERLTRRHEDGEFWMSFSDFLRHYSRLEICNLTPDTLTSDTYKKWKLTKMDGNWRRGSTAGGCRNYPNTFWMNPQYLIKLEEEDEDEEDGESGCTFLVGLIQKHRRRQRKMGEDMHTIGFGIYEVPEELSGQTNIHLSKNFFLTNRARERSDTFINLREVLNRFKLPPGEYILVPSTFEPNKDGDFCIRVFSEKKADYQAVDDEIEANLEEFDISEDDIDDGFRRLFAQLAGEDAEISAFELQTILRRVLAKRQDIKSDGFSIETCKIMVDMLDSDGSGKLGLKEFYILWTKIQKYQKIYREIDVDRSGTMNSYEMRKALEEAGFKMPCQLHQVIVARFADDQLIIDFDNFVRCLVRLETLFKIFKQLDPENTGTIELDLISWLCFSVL
T3 sequence (P04632 1-268 partner): T1 sequence (P04632 1-268 partner)
Outline: as §1

| Compound | pIC50 ([1]; Column C) | pIC50 ([2]; Column A) | pIC50 ([3]; Column B) | pIC50 [1] | pIC50 [2] | pIC50 [3] |
| --- | --- | --- | --- | --- | --- | --- |
| Cc1noc(-c2ccc3c(c2)OCO3)c1C(=O)N[C@@H](Cc1ccccc1)C(=O)C(N)=O [Compound 20, (S)—N-(4-amino-3,4-dioxo-1-phenylbutan-2-yl)-5-(benzo[D][1,3]dioxol-5-yl)-3-methylisoxazole-4-carboxamide] | > 5.52 | > 5.52 | > 5.52 | – | – | – |
| Cc1cc(C(=O)NC(Cc2ccccc2)C(=O)C(N)=O)c(-c2nc3ccccc3[nH]2)s1 (stereo not drawn) [Compound 429, N-(4-amino-3,4-dioxo-1-phenylbutan-2-yl)-2-(1H-benzo[d]imidazol-2-yl)-5-methylthiophene-3-carboxamide] | – | – | – | > 5.52 | > 5.52 | > 5.52 |
| NC(=O)C(=O)[C@H](Cc1ccccc1)NC(=O)c1ccsc1-c1ccccc1 [Compound 270, (S)—N-(4-amino-3,4-dioxo-1-phenylbutan-2-yl)-2-phenylthiophene-3-carboxamide] | > 5.52 | > 5.52 | > 5.52 | – | – | – |
| (S)—N-(4-amino-1-(3,5-dimethylphenyl)-3,4-dioxobutan-2-yl)-3-methyl-5-phenylisoxazole-4-carboxamide [Compound 98] | > 5.52 | > 5.52 | > 5.52 | – | – | – |
| CC(C)(C)c1cc(C(=O)N[C@@H](Cc2ccccc2)C(=O)C(N)=O)n(-c2ccccc2)n1 [Compound 128, (S)—N-(4-amino-3,4-dioxo-1-phenylbutan-2-yl)-3-(tert-butyl)-1-phenyl-1H-pyrazole-5-carboxamide] | 5.00 to 5.52 | 5.00 to 5.52 | < 5.00 | – | – | – |
| NC(=O)C(=O)[C@H](Cc1ccccc1)NC(=O)c1c(Cl)ncn1-c1ccccc1 [Compound 291, (S)—N-(4-amino-3,4-dioxo-1-phenylbutan-2-yl)-4-chloro-1-phenyl-1H-imidazole-5-carboxamide] | > 5.52 | > 5.52 | > 5.52 | – | – | – |
| Cc1cc(C(=O)N[C@H](C=O)Cc2ccccc2)n(-c2ccccc2)n1 [Compound 8, (S)-3-methyl-N-(1-oxo-3-phenylpropan-2-yl)-1-phenyl-1H-pyrazole-5-Carboxamide] | > 5.52 | > 5.52 | > 5.52 | – | – | – |
| O=C[C@H](Cc1ccccc1)NC(=O)c1cncn1-c1nc2ccccc2s1 [Compound 29, (S)-1-(benzo[d]thiazol-2-yl)-N-(1-oxo-3-phenylpropan-2-yl)-1H-imidazole-5-carboxamide] | > 5.52 | > 5.52 | > 5.52 | – | – | – |
| Cc1cn(-c2ccccc2)c(C(=O)N[C@@H](Cc2ccccc2)C(=O)C(N)=O)n1 [Compound 319, (S)—N-(4-amino-3,4-dioxo-1-phenylbutan-2-yl)-4-methyl-1-phenyl-1H-imidazole-2-carboxamide] | – | – | – | > 5.52 | > 5.52 | > 5.52 |
| CCn1ncc(Cl)c1C(=O)N[C@@H](Cc1ccccc1)C(=O)C(N)=O [Compound 311, (S)—N-(4-amino-3,4-dioxo-1-phenylbutan-2-yl)-4-chloro-1-ethyl-1H-pyrazole-5-carboxamide] | – | – | – | > 5.52 | > 5.52 | > 5.52 |
| CC(C)c1cc(C(=O)N[C@@H](Cc2ccccc2)C(=O)C(N)=O)n(-c2ccccc2)n1 [Compound 117, (S)—N-(4-amino-3,4-dioxo-1-phenylbutan-2-yl)-3-isopropyl-1-phenyl-1H-pyrazole-5-carboxamide] | 5.00 to 5.52 | 5.00 to 5.52 | 5.00 to 5.52 | – | – | – |
| Cc1nc(-c2ccccc2)c(C(=O)NC(Cc2cc(Cl)cc(Cl)c2)C(=O)C(N)=O)o1 (stereo not drawn) [Compound 390, N-(4-amino-1-(3,5-dichlorophenyl)-3,4-dioxobutan-2-yl)-2-methyl-4-phenyloxazole-5-carboxamide] | – | – | – | > 5.52 | > 5.52 | > 5.52 |
| Cc1noc(-n2ccc(-c3ccccc3)n2)c1C(=O)N[C@@H](Cc1ccccc1)C(=O)C(N)=O [Compound 211, (S)—N-(4-amino-3,4-dioxo-1-phenylbutan-2-yl)-3-methyl-5-(3-phenyl-1H-pyrazol-1-yl)isoxazole-4-carboxamide] | > 5.52 | > 5.52 | > 5.52 | – | – | – |
| O=C[C@H](Cc1ccccc1)NC(=O)c1scnc1-n1cc(-c2ccccc2)cn1 [Compound 21, (S)—N-(1-oxo-3-phenylpropan-2-yl)-4-(4-phenyl-1H-pyrazol-1-yl)thiazole-5-carboxamide] | > 5.52 | > 5.52 | > 5.52 | – | – | – |
| NC(=O)C(=O)[C@H](Cc1ccccc1)NC(=O)c1nn[nH]c1-c1ccccc1 [Compound 262, (S)—N-(4-amino-3,4-dioxo-1-phenylbutan-2-yl)-5-phenyl-1H-1,2,3-triazole-4-carboxamide] | > 5.52 | 5.00 to 5.52 | 5.00 to 5.52 | – | – | – |
| Cn1cc(C(=O)NC(Cc2ccccc2)C(=O)C(N)=O)c(C2CCCC2)n1 (stereo not drawn) [Compound 620, N-(4-amino-3,4-dioxo-1-phenylbutan-2-yl)-3-cyclopentyl-1-methyl-1H-pyrazole-4-carboxamide] | – | – | – | 5.00 to 5.52 | > 5.52 | > 5.52 |
| Cc1cc(C(=O)N[C@@H](Cc2ccccc2)C(=O)C(N)=O)n(-c2nccc3ccccc23)n1 [Compound 119, (S)—N-(4-amino-3,4-dioxo-1-phenylbutan-2-yl)-1-(isoquinolin-1-yl)-3-methyl-1H-pyrazole-5-carboxamide] | > 5.52 | > 5.52 | > 5.52 | – | – | – |
| Cn1ncc(C(=O)N[C@@H](Cc2ccccc2)C(=O)C(N)=O)c1-c1cncnc1 [Compound 176, (S)—N-(4-amino-3,4-dioxo-1-phenylbutan-2-yl)-1-methyl-5-(pyrimidin-5-yl)-1H-pyrazole-4-carboxamide] | > 5.52 | > 5.52 | > 5.52 | – | – | – |
| Cc1cc(C(=O)N[C@@H](Cc2ccccc2)C(=O)C(N)=O)n(-c2ccc(-c3ccccc3)nn2)n1 [Compound 233, (S)—N-(4-amino-3,4-dioxo-1-phenylbutan-2-yl)-3-methyl-1-(6-phenylpyridazin-3-yl)-1H-pyrazole-5-carboxamide] | 5.00 to 5.52 | > 5.52 | > 5.52 | – | – | – |
